Data taken from patent US8343968B2, “Case of renin inhibitors” (Merck Canada Inc., priority 2007, dated 2013).

Key:
[1] = target: T1, human recombinant renin (Homo sapiens, UniProt P00797); assay: Inhibition of human recombinant renin (buffer), enzymatic in vitro assay with Ang I EIA; format: biochemical; settings: assay buffer PBS, 1 mM EDTA, 0.1% BSA; human recombinant renin 40 pM
T1 sequence (P00797 67-406): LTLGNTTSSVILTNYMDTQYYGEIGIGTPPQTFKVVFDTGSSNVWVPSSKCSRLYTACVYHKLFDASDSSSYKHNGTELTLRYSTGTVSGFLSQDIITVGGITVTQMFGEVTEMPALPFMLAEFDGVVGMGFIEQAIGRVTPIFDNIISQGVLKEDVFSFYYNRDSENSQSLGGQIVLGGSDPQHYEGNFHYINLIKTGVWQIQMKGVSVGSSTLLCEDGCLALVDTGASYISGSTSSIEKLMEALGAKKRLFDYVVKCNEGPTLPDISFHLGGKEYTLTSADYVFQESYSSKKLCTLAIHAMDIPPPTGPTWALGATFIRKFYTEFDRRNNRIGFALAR
Protocol: Inhibition of Human Recombinant Renin
The enzymatic in vitro assay was performed in 384-well polypropylene plates (Nunc). The assay buffer consisted of PBS (Gibco BRL) including 1 mM EDTA and 0.1% BSA. The reaction mixture were composed of 47.5 μL per well of an enzyme mix and 2.5 μL of renin inhibitors in DMSO. The enzyme mix was premixed at 4° C. and consists of the following components: • human recombinant renin (40 pM) • synthetic human angiotensin(1-14) (0.5 μM) • hydroxyquinoline sulfate (1 mM) The mixtures were then incubated at 37° C. for 3 h. The enzyme reaction was stopped by placing the reaction plate on wet ice.
(§1) To determine the enzymatic activity and its inhibition, the accumulated Ang I was detected by an enzyme immunoassay (EIA) in 384-well plates (Nunc). 5 μL of the reaction mixture or standards were transferred to immuno plates which were previously coated with a covalent complex of Ang I and bovine serum albumin (Ang I-BSA). 75 μL of Ang I-antibodies in assay buffer above including 0.01% Tween 20 were added and the plates were incubated at 4° C. overnight.
An alternative protocol could be used by stopping the enzymatic reaction with 0.02N final concentration of HCl. 5 μL of the reaction mixture or standards were transferred to immuno plates and 75 μL of Ang I-antibodies in assay buffer above including 0.01% Tween 20 were added and the plates were incubate at RT for 4 h.
The plates were washed 3 times with PBS including 0.01% Tween 20, and then incubated for 2 h at RT with an anti rabbit-peroxidase coupled antibody (WA 934, Amersham).

[2] = target: T2, renin in human plasma (human recombinant renin) (Homo sapiens, UniProt P00797); assay: Inhibition of renin in human plasma, enzymatic in vitro assay with Ang I EIA; format: biochemical; settings: human plasma from 10 normal donors; human recombinant renin 3 pM
T2 construct: host or cells: human plasma from 10 normal donors as matrix
T2 sequence (P00797 67-406): T1 sequence (P00797 67-406)
Protocol: Inhibition of Renin in Human Plasma
The enzymatic in vitro assay was performed in 384-well polypropylene plates (Nunc). The assay buffer consisted of PBS (Gibco BRL) including 1 mM EDTA and 0.1% BSA. The reaction mixture was composed of 80 μL per well of human plasma, enzyme, Ang I-antibodies mix and 5 μL of renin inhibitors in DMSO. The human plasma mix was premixed at 4° C. and consists of • human plasma from 10 normal donors • human recombinant renin (3 pM) • Ang I-antibodies. The mixtures were then incubated at 37° C. for 2 h.
as §1, with “10” for “5”, “70” for “75”, “μL” for “μL of Ang I-antibodies in”, “buffer” for “buffer above including 0.01% Tween 20”, “overnight. The plates were washed 3 times with PBS including 0.01% Tween 20, and then incubated for 2 h at RT with an anti rabbit-peroxidase coupled antibody (WA 934, Amersham).” for “overnight.”

Structure (SMILES) | IC50 [1] | IC50 [2]
COCCCc1cc(CN(C(=O)[C@H]2CNCC[C@@H]2c2ccc(OCCOc3c(Cl)cc(C)cc3Cl)cc2)C2CC2)cc(OC[C@@H]2C[C@H]2C(=O)O)c1 [Example 2] | 0.027 nM | 1.1 nM
CCOC(=O)[C@@H]1C[C@H]1COc1cc(CCCOC)cc(CN(C(=O)[C@H]2CNCC[C@@H]2c2ccc(OCCOc3c(Cl)cc(C)cc3Cl)cc2)C2CC2)c1 [Example 1, Ethyl (1R,2R)-2-{[3-({cyclopropyl[((3R,4S)-4-{4-[2-(2,6-dichloro-4-methylphenoxy)-ethoxy]phenyl}piperidin-3-yl)carbonyl]amino}methyl)-5-(3-methoxypropyl)phen-oxy]methyl}cyclopropanecarboxylate] | 0.064 nM | 11 nM
COCCCc1cc(CN(C(=O)[C@H]2CNCC[C@@H]2c2ccc(OCCOc3c(Cl)cc(C)cc3Cl)cc2)C2CC2)cc(OCC2(Cc3nn[nH]n3)CC2)c1 [Example 14, (3R,4S)—N-Cyclopropyl-4-{4-[2-(2,6-dichloro-4-methylphenoxy)ethoxy]phenyl}-N-(3-(3-methoxypropyl)-5-{[1-(2H-tetrazol-5-ylmethyl)cyclopropyl]methoxy}benzyl)-piperidine-3-carboxamide] | 0.03 nM | 2.3 nM
COCCCc1cc(CN(C(=O)[C@H]2CNCC[C@@H]2c2ccc(OCCOc3c(Cl)cc(C)cc3Cl)cc2)C2CC2)cc(OCC2(CC(=O)O)CC2)c1 [Example 12, (1-{[3-({Cyclopropyl[((3R,4S)-4-{4-[2-(2,6-dichloro-4-methylphenoxy)ethoxy]-phenyl}piperidin-3-yl)carbonyl]amino}methyl)-5-(3-methoxypropyl)phenoxy]-methyl}cyclopropyl)acetic Acid] | 0.036 nM | 5.6 nM
